Key:
Assay type in all cases: biochemical
[1] = target: T1, HDAC9 (Homo sapiens, UniProt Q9UKV0); test: HDAC enzymatic assay (Reaction Biology), Class 2A substrate; settings: 10-dose response curve; read-out: Compound IC50 (M), HDAC9
T1 construct: purchased Reaction Biology
Method: (§1) Compounds 2 and 9 were tested in an enzymatic assay from Reaction Biology® against HDAC isoforms.
(§2) Base Reaction buffer: 50 mM Tris-HCl, pH8.0, 137 mM NaCl, 2.7 mM KCl, and 1 mM MgCl2. Add fresh: 1 mg/ml BSA, 1% DMSO
(§3) Class 2A Substrate (HDAC4, HDAC5, HDAC7, and HDAC9): Boc-Lys(trifluoroacetyl)-AMC
(§4) 1. Delivered 2X enzyme in wells of reaction plate except in the control wells and added buffer to control wells. 2. Delivered compounds in 100% DMSO into the enzyme mixture by Acoustic technology (Echo550; nanoliter range). Spin down and pre-incubation. 3. Delivered 2X Substrate Mixture (Fluorogenic HDAC Substrate and co-factor if applicable) in all reaction wells to initiate the reaction. Spin and shake. 4. Incubated for 30 min for Class 2A, 1 h for HDAC1, 2, 3, and 6, and 2 h for the rest of HDAC isoforms and SIRTs at 30° C. with seal.
(§5) 5. Added Developer with Trichostatin A (or Nicotinamide for SIRTs) to stop the reaction and to generate fluorescent color. 6. The fluorescence that was generated was detected with excitation (Ex) at […] and emission (Em) at 460 nM by the EnVision Multilabel Plate Reader (PerkinElmer®, Santa Clara, Calif., USA).
(§6) IC50 values were derived from a 10-dose response curve. As shown in Tables 1-2, the addition of a linker and CRBN targeting group altered the isoform selectivity of the SAHA-based degrader compounds.

[2] = target: T2, HDAC7 (Homo sapiens, UniProt Q8WUI4); test: as above; settings: 10-dose response curve; read-out: Compound IC50 (M), HDAC7
T2 construct: purchased Reaction Biology
T2 sequence (Q8WUI4 1-952): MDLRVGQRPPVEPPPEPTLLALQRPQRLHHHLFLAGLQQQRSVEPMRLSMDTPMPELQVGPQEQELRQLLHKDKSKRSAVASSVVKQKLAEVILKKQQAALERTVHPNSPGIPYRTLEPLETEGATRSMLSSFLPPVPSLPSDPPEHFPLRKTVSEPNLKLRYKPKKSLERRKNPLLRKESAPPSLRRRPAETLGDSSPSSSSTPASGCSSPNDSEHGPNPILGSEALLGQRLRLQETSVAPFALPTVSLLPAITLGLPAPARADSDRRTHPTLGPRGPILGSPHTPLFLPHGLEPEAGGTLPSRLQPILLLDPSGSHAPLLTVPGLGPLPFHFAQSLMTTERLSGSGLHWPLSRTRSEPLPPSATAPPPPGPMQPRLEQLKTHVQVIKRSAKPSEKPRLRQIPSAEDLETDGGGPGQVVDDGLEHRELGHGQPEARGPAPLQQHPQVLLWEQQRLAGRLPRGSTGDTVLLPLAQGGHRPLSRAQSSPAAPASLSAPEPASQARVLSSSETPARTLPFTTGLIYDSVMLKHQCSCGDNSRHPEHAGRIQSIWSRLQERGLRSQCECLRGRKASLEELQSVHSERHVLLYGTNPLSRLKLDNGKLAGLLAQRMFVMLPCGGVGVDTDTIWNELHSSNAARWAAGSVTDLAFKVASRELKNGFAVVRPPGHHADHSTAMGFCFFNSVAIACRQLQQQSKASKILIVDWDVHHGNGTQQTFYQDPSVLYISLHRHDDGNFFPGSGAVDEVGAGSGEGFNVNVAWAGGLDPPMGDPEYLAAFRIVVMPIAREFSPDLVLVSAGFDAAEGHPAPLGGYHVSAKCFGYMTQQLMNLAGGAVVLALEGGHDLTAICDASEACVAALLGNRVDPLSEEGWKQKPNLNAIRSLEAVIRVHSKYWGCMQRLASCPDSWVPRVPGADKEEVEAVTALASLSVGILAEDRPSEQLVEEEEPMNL
Method: as §1, §2, §3, §4, §5, §6

[3] = target: T3, HDAC5 (Homo sapiens, UniProt Q9UQL6); test: as above; settings: 10-dose response curve; read-out: Compound IC50 (M), HDAC5
T3 construct: purchased Reaction Biology
Method: as §1, §2, §3, §4, §5, §6

[4] = target: HDAC3 (Homo sapiens, UniProt O15379); test: HDAC enzymatic assay (Reaction Biology), fluorogenic substrate; design: purchased Reaction Biology
Method: as §1, §2
Fluorogenic HDAC General Substrate (HDAC1, HDAC2, HDAC3, HDAC6, HDAC10, and HDAC11): 50 μM, Arg-His-Lys-Lys(Ac)-AMC
as §4, §5, §6

HDAC3, sequence (O15379 whole entry): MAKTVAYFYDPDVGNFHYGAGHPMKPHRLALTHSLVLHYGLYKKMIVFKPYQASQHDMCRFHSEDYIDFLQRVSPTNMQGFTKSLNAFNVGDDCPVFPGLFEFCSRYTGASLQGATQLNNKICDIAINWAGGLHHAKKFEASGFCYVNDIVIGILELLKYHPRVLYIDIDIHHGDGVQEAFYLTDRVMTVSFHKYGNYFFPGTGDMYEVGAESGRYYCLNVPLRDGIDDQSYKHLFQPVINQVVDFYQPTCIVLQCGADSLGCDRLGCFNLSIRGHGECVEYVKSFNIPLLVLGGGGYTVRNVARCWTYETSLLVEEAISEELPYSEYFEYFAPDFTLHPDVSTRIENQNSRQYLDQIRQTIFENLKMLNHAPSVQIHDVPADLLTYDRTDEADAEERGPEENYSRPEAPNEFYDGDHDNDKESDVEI
HDAC3, sequence (Q9Y618 395-489 partner limits assumed): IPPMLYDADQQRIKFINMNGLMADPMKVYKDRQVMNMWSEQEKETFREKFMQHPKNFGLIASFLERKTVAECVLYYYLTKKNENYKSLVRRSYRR
T3 sequence (Q9UQL6 whole entry): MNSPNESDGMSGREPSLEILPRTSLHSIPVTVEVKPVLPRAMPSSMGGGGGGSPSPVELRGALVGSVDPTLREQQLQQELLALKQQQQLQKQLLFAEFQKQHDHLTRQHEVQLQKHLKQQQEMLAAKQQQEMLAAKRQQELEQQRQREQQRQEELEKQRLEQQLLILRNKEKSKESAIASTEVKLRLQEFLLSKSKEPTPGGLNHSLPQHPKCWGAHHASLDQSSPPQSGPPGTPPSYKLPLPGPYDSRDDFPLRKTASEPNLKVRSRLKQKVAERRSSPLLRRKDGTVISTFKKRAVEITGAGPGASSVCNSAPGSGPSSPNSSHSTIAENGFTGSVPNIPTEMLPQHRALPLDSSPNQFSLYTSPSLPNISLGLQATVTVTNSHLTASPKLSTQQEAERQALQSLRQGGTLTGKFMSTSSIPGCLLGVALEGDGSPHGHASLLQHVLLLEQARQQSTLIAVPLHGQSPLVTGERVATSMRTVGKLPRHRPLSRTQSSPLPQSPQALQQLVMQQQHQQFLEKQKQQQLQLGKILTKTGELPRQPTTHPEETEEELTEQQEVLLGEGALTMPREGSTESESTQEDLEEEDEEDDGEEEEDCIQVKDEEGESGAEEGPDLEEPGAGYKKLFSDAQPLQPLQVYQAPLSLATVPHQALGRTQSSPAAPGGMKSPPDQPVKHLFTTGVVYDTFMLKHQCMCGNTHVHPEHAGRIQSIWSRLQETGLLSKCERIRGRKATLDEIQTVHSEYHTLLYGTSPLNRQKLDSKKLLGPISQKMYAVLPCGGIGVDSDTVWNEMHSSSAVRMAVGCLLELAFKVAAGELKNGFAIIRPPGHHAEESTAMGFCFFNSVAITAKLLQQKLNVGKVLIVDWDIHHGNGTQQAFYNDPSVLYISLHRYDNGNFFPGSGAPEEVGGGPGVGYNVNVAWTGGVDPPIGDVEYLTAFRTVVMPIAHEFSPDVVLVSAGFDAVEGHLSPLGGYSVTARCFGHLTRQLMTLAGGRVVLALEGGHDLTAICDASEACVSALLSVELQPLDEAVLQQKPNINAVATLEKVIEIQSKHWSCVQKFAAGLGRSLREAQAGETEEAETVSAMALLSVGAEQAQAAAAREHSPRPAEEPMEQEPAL
T1 sequence (Q9UKV0 whole entry): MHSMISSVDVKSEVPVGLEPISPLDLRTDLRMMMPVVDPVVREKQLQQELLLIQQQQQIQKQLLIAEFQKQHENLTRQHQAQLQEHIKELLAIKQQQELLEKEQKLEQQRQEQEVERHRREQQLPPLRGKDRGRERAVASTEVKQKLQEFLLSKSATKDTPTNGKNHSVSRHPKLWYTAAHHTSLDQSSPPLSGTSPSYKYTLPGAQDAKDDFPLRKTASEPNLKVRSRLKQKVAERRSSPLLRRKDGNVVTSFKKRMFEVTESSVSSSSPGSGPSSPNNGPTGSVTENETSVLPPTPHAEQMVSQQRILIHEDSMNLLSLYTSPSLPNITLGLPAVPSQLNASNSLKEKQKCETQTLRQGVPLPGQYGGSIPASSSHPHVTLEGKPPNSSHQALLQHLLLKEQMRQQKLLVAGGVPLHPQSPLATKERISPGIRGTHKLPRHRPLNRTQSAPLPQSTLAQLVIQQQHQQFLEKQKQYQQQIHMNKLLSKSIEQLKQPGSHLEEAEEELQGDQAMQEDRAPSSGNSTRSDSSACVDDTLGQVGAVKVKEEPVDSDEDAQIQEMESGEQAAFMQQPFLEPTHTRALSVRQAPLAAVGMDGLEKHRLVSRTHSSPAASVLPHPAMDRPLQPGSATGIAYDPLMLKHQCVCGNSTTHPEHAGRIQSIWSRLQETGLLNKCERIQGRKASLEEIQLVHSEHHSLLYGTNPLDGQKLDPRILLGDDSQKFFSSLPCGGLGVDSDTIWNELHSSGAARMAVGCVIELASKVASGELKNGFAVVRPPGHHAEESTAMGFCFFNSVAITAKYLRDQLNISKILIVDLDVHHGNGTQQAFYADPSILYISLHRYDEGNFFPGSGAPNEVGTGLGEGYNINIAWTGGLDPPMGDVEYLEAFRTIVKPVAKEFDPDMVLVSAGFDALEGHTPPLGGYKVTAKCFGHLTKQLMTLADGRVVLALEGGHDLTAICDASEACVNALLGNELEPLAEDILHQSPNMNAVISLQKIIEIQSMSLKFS

IC50 [1]: > 2e-05 M
IC50 [2]: 1.71e-05 M
IC50 [3]: 2.69e-06 M
inhibition of HDAC3 deacetylase activity in vitro (in words) [4]: Moderate inhibition
IC50 ([4]; 10-dose response curve, read-out: Compound IC50 (M), HDAC3): 5.77e-07 M
Structure (SMILES): Cc1ncsc1-c1ccc([C@H](C)NC(=O)[C@@H]2C[C@@H](O)CN2C(=O)[C@@H](NC(=O)CCOCCOCCN(CCc2c[nH]c3ccccc23)Cc2ccc(/C=C/C(=O)NO)cc2)C(C)(C)C)cc1 [Compound 2, (2S,4R)-1-((S)-14-(tert-butyl)-3-(4-((E)-3-(hydroxyamino)-3-oxoprop-1-en-1-yl)benzyl)-1-(1H-indol-3-yl)-12-oxo-6,9-dioxa-3,13-diazapentadecan-15-oyl)-4-hydroxy-N—((S)-1-(4-(4-methylthiazol-5-yl)phenyl)ethyl)pyrrolidine-2-carboxamide]
